Laboratory results published in PubChem BioAssay (NCI).
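In this assay, cells in 96-well plates receive the compound at five concentrations for 48 hours. Endpoints are linearly interpolated between the surrounding concentrations. Here, GI50 denotes the concentration required for 50% inhibition of growth. Definition used: TGI = concentration required for complete inhibition of growth.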

Experiments:
Assay in all cases: NCI-60 cell line screen, 48 h
OVCAR-4 ovarian = system: OVCAR-4 ovarian
SF-295 CNS = system: SF-295 CNS
UACC-257 melanoma = system: UACC-257 melanoma
RXF 393 renal = system: RXF 393 renal
SF-268 CNS = system: SF-268 CNS
HOP-62 NSCLC = system: HOP-62 NSCLC
OVCAR-8 ovarian = system: OVCAR-8 ovarian
OVCAR-3 ovarian = system: OVCAR-3 ovarian
T-47D breast = system: T-47D breast
KM12 colon = system: KM12 colon
MALME-3M melanoma = system: MALME-3M melanoma
CAKI-1 renal = system: CAKI-1 renal
SW-620 colon = system: SW-620 colon
HOP-92 NSCLC = system: HOP-92 NSCLC
CCRF-CEM leukemia = system: CCRF-CEM leukemia
MCF7 breast = system: MCF7 breast
HCC-2998 colon = system: HCC-2998 colon
SK-MEL-5 melanoma = system: SK-MEL-5 melanoma
SK-OV-3 ovarian = system: SK-OV-3 ovarian
SK-MEL-28 melanoma = system: SK-MEL-28 melanoma
SN12C renal = system: SN12C renal
SK-MEL-2 melanoma = system: SK-MEL-2 melanoma
EKVX NSCLC = system: EKVX NSCLC
U251 CNS = system: U251 CNS
A549 NSCLC = system: A549 NSCLC
SNB-75 CNS = system: SNB-75 CNS
HT29 colon = system: HT29 colon
NCI-H226 lung = system: NCI-H226 lung
UACC-62 melanoma = system: UACC-62 melanoma
PC-3 prostate = system: PC-3 prostate
SR leukemia = system: SR leukemia
DU-145 prostate = system: DU-145 prostate
TK-10 renal = system: TK-10 renal
MOLT-4 leukemia = system: MOLT-4 leukemia
SF-539 CNS = system: SF-539 CNS
NCI-H460 lung = system: NCI-H460 lung
MDA-MB-435 = system: MDA-MB-435
A498 renal = system: A498 renal
K-562 leukemia = system: K-562 leukemia
HS 578T breast = system: HS 578T breast
IGROV1 ovarian = system: IGROV1 ovarian
HL-60(TB) leukemia = system: HL-60(TB) leukemia
786-0 renal = system: 786-0 renal
MDA-MB-231 breast = system: MDA-MB-231 breast
OVCAR-5 ovarian = system: OVCAR-5 ovarian
M14 melanoma = system: M14 melanoma
HCT-15 colon = system: HCT-15 colon
SNB-19 CNS = system: SNB-19 CNS
BT-549 breast = system: BT-549 breast
RPMI-8226 leukemia = system: RPMI-8226 leukemia
ACHN renal = system: ACHN renal
UO-31 renal = system: UO-31 renal

SMILES: CC1(C)[C@@H](O)CC[C@]2(C)[C@H]3CC[C@@H]4[C@H]5[C@H](C(=O)/C=C\c6ccccn6)CC[C@]5(O)CC[C@@]4(C)[C@]3(C)CC[C@@H]12
- GI50 (OVCAR-4 ovarian): 3.92 µM
- TGI (OVCAR-4 ovarian): 46.4 µM
- GI50 (SF-295 CNS): 2.61 µM
- TGI (SF-295 CNS): 8.55 µM
- GI50 (UACC-257 melanoma): 3.25 µM
- TGI (UACC-257 melanoma): 39.2 µM
- GI50 (RXF 393 renal): 1.74 µM
- TGI (RXF 393 renal): 3.15 µM
- GI50 (SF-268 CNS): 2.38 µM
- TGI (SF-268 CNS): 8.44 µM
- GI50 (HOP-62 NSCLC): 1.8 µM
- TGI (HOP-62 NSCLC): 4.99 µM
- GI50 (OVCAR-8 ovarian): 3.37 µM
- TGI (OVCAR-8 ovarian): > 100 µM
- GI50 (OVCAR-3 ovarian): 1.87 µM
- TGI (OVCAR-3 ovarian): 4.89 µM
- GI50 (T-47D breast): 1.52 µM
- TGI (T-47D breast): 8.62 µM
- GI50 (KM12 colon): 1.85 µM
- TGI (KM12 colon): 3.96 µM
- GI50 (MALME-3M melanoma): 2.16 µM
- TGI (MALME-3M melanoma): 4.78 µM
- GI50 (CAKI-1 renal): 2.02 µM
- TGI (CAKI-1 renal): 8.4 µM
- GI50 (SW-620 colon): 1.93 µM
- TGI (SW-620 colon): 4.85 µM
- GI50 (HOP-92 NSCLC): 1.34 µM
- TGI (HOP-92 NSCLC): 3.74 µM
- GI50 (CCRF-CEM leukemia): 2.06 µM
- TGI (CCRF-CEM leukemia): 8.51 µM
- GI50 (MCF7 breast): 0.768 µM
- TGI (MCF7 breast): 4.54 µM
- GI50 (HCC-2998 colon): 1.94 µM
- TGI (HCC-2998 colon): 3.52 µM
- GI50 (SK-MEL-5 melanoma): 1.63 µM
- TGI (SK-MEL-5 melanoma): 3.05 µM
- GI50 (SK-OV-3 ovarian): 5.35 µM
- TGI (SK-OV-3 ovarian): 30.7 µM
- GI50 (SK-MEL-28 melanoma): 2.04 µM
- TGI (SK-MEL-28 melanoma): 4.13 µM
- GI50 (SN12C renal): 3.08 µM
- TGI (SN12C renal): > 100 µM
- GI50 (SK-MEL-2 melanoma): 2.61 µM
- TGI (SK-MEL-2 melanoma): 7.18 µM
- GI50 (EKVX NSCLC): 2.62 µM
- TGI (EKVX NSCLC): 13.3 µM
- GI50 (U251 CNS): 1.61 µM
- TGI (U251 CNS): 3.1 µM
- GI50 (A549 NSCLC): 2.77 µM
- TGI (A549 NSCLC): 9.37 µM
- GI50 (SNB-75 CNS): 7.59 µM
- TGI (SNB-75 CNS): > 100 µM
- GI50 (HT29 colon): 3.33 µM
- TGI (HT29 colon): > 100 µM
- GI50 (NCI-H226 lung): 3.05 µM
- TGI (NCI-H226 lung): 34.5 µM
- GI50 (UACC-62 melanoma): 1.74 µM
- TGI (UACC-62 melanoma): 3.95 µM
- GI50 (PC-3 prostate): 2.1 µM
- TGI (PC-3 prostate): 6.24 µM
- GI50 (SR leukemia): 1.71 µM
- TGI (SR leukemia): 14.5 µM
- GI50 (DU-145 prostate): 1.75 µM
- TGI (DU-145 prostate): 3.52 µM
- GI50 (TK-10 renal): 3.23 µM
- TGI (TK-10 renal): 9.31 µM
- GI50 (MOLT-4 leukemia): 2.39 µM
- TGI (MOLT-4 leukemia): > 100 µM
- GI50 (SF-539 CNS): 2.34 µM
- TGI (SF-539 CNS): 6.34 µM
- GI50 (NCI-H460 lung): 1.9 µM
- TGI (NCI-H460 lung): 4.83 µM
- GI50 (MDA-MB-435): 1.76 µM
- TGI (MDA-MB-435): 3.75 µM
- GI50 (A498 renal): 1.66 µM
- TGI (A498 renal): 4.33 µM
- GI50 (K-562 leukemia): 2.25 µM
- TGI (K-562 leukemia): > 100 µM
- GI50 (HS 578T breast): 6.84 µM
- TGI (HS 578T breast): > 100 µM
- GI50 (IGROV1 ovarian): 1.9 µM
- TGI (IGROV1 ovarian): 4.07 µM
- GI50 (HL-60(TB) leukemia): 1.81 µM
- TGI (HL-60(TB) leukemia): 5.74 µM
- GI50 (786-0 renal): 2.23 µM
- TGI (786-0 renal): 4.73 µM
- GI50 (MDA-MB-231 breast): 3.04 µM
- TGI (MDA-MB-231 breast): > 100 µM
- GI50 (OVCAR-5 ovarian): 2.89 µM
- TGI (OVCAR-5 ovarian): 7.92 µM
- GI50 (M14 melanoma): 2.26 µM
- TGI (M14 melanoma): 5.87 µM
- GI50 (HCT-15 colon): 1.9 µM
- TGI (HCT-15 colon): 5.52 µM
- GI50 (SNB-19 CNS): 2.77 µM
- TGI (SNB-19 CNS): 10.8 µM
- GI50 (BT-549 breast): 1.96 µM
- TGI (BT-549 breast): 3.57 µM
- GI50 (RPMI-8226 leukemia): 1.76 µM
- TGI (RPMI-8226 leukemia): 5.35 µM
- GI50 (ACHN renal): 2.33 µM
- TGI (ACHN renal): 6.28 µM
- GI50 (UO-31 renal): 1.6 µM
- TGI (UO-31 renal): 3.23 µM
